{"source": "PubChem BioAssay AID256", "about": "(DTP/NCI, 2004)", "tested_on": "CD2F1 mice, L1210 leukemia ip, survival T/C", "assay": "NCI In Vivo Anticancer Drug Screen. Data for tumor model L1210 Leukemia (intraperitoneal) in CD2F1 (CDF1) mice", "details": "endpoint: mean survival time, higher = longer survival", "method_in_brief": "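Mice carrying a transplanted tumor received test compound or vehicle alone. The value is the measurement in the treated group divided by that in the vehicle-treated control group.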", "key": {"[1]": {"details": "dose: 100.0 mg/kg/injection, schedule: Q01DX009 (ip), vehicle: saline with Tween-80"}, "[2]": {"details": "dose: 100.0 mg/kg/injection, schedule: Q01DX009 (ip), vehicle: saline"}}, "note": "Toxic doses and inconclusive results are not listed."}
{"smiles": "COc1cc2ccc3c(c2cc1OC)CCc1cn[nH]c1-3", "values": [{"measurement": "T/C", "setting": "dose: 100.0 mg/kg/injection, schedule: Q04DX002 (ip), vehicle: saline with Tween-80", "value": "103 % of control"}, {"measurement": "T/C", "setting": "dose: 200.0 mg/kg/injection, schedule: Q04DX002 (ip), vehicle: saline with Tween-80", "value": "107 % of control"}, {"measurement": "T/C", "setting": "dose: 400.0 mg/kg/injection, schedule: Q04DX002 (ip), vehicle: saline with Tween-80", "value": "103 % of control"}]}
{"smiles": "CC(C)(C)OC(=O)N/N=C/c1ccc2c(c1)CCC2", "values": [{"measurement": "T/C", "setting": "dose: 100.0 mg/kg/injection, schedule: Q01DX001 (ip), vehicle: Klucel (hydroxypropylcellulose) (HPC)", "value": "101 % of control"}, {"measurement": "T/C", "setting": "dose: 200.0 mg/kg/injection, schedule: Q01DX001 (ip), vehicle: Klucel (hydroxypropylcellulose) (HPC)", "value": "101 % of control"}, {"measurement": "T/C", "setting": "dose: 400.0 mg/kg/injection, schedule: Q01DX001 (ip), vehicle: Klucel (hydroxypropylcellulose) (HPC)", "value": "104 % of control"}]}
{"smiles": "C=CC[As](=O)(O)CCC", "values": [{"measurement": "T/C", "setting": "dose: 25.0 mg/kg/injection, schedule: Q01DX009 (ip), vehicle: saline", "value": "100 % of control"}, {"measurement": "T/C", "setting": "dose: 50.0 mg/kg/injection, schedule: Q01DX009 (ip), vehicle: saline", "value": "98 % of control"}, {"measurement": "T/C", "setting": "[1]", "value": "114 % of control"}, {"measurement": "T/C", "setting": "[2]", "value": "97 % of control"}]}
{"smiles": "CCCCC1(CC)NC(=O)NC1=O", "note": "(stereo unspecified)", "values": [{"measurement": "T/C", "setting": "dose: 100.0 mg/kg/injection, schedule: Q01DX001 (ip), vehicle: other", "value": "92 % of control"}, {"measurement": "T/C", "setting": "dose: 200.0 mg/kg/injection, schedule: Q01DX001 (ip), vehicle: other", "value": "92 % of control"}, {"measurement": "T/C", "setting": "dose: 400.0 mg/kg/injection, schedule: Q01DX001 (ip), vehicle: other", "value": "87 % of control"}]}
{"smiles": "NC(CO)(CO)CO", "values": [{"measurement": "T/C", "setting": "[2]", "value": "98 % of control"}, {"measurement": "T/C", "setting": "dose: 200.0 mg/kg/injection, schedule: Q01DX009 (ip), vehicle: saline", "value": "93 % of control"}, {"measurement": "T/C", "setting": "dose: 400.0 mg/kg/injection, schedule: Q01DX009 (ip), vehicle: saline", "value": "100 % of control"}]}
{"smiles": "CC(C)c1ccccc1OS(=O)(=O)c1cccc([N+](=O)[O-])c1", "values": [{"measurement": "T/C", "setting": "[1]", "value": "98 % of control"}, {"measurement": "T/C", "setting": "dose: 100.0 mg/kg/injection, schedule: Q04DX003 (ip), vehicle: saline with Tween-80", "value": "100 % of control"}, {"measurement": "T/C", "setting": "dose: 200.0 mg/kg/injection, schedule: Q01DX009 (ip), vehicle: saline with Tween-80", "value": "100 % of control"}, {"measurement": "T/C", "setting": "dose: 200.0 mg/kg/injection, schedule: Q04DX003 (ip), vehicle: saline with Tween-80", "value": "99 % of control"}, {"measurement": "T/C", "setting": "dose: 400.0 mg/kg/injection, schedule: Q01DX009 (ip), vehicle: saline with Tween-80", "value": "100 % of control"}, {"measurement": "T/C", "setting": "dose: 400.0 mg/kg/injection, schedule: Q04DX003 (ip), vehicle: saline with Tween-80", "value": "106 % of control"}]}
{"smiles": "O=[N+]([O-])C1CC=CCC1C(Cl)(Cl)Cl", "note": "(stereo unspecified)", "values": [{"measurement": "T/C", "setting": "dose: 5.0 mg/kg/injection, schedule: Q01DX009 (ip), vehicle: saline with Tween-80", "value": "97 % of control"}, {"measurement": "T/C", "setting": "dose: 10.0 mg/kg/injection, schedule: Q01DX009 (ip), vehicle: saline with Tween-80", "value": "103 % of control"}]}
{"smiles": "CCS(=O)(=O)Nc1ccc(Nc2c3ccccc3nc3ccccc23)c(OC)c1", "values": [{"measurement": "T/C", "setting": "dose: 5.0 mg/kg/injection, schedule: Q01DX009 (ip), vehicle: saline", "value": "156 % of control"}]}
{"smiles": "COc1ccccc1OCC1CO1", "note": "(stereo unspecified)", "values": [{"measurement": "T/C", "setting": "dose: 100.0 mg/kg/injection, schedule: Q01DX001 (ip), vehicle: saline", "value": "101 % of control"}, {"measurement": "T/C", "setting": "dose: 200.0 mg/kg/injection, schedule: Q01DX001 (ip), vehicle: saline", "value": "102 % of control"}, {"measurement": "T/C", "setting": "dose: 400.0 mg/kg/injection, schedule: Q01DX001 (ip), vehicle: saline", "value": "102 % of control"}]}
{"smiles": "Cc1cc(=O)n2cc(Br)ccc2n1", "values": [{"measurement": "T/C", "setting": "dose: 12.5 mg/kg/injection, schedule: Q01DX001 (ip), vehicle: saline", "value": "108 % of control"}, {"measurement": "T/C", "setting": "dose: 25.0 mg/kg/injection, schedule: Q01DX001 (ip), vehicle: saline", "value": "107 % of control"}, {"measurement": "T/C", "setting": "dose: 50.0 mg/kg/injection, schedule: Q01DX001 (ip), vehicle: saline", "value": "96 % of control"}]}
{"smiles": "COC(=O)c1ccc(OC)c2nc3c(C=O)c(OC)cc(OC)c3nc12", "values": [{"measurement": "T/C", "setting": "dose: 5.3 mg/kg/injection, schedule: Q01DX009 (ip), vehicle: saline with Tween-80", "value": "94 % of control"}, {"measurement": "T/C", "setting": "dose: 8.0 mg/kg/injection, schedule: Q01DX009 (ip), vehicle: saline with Tween-80", "value": "92 % of control"}, {"measurement": "T/C", "setting": "dose: 12.0 mg/kg/injection, schedule: Q01DX009 (ip), vehicle: saline with Tween-80", "value": "94 % of control"}, {"measurement": "T/C", "setting": "dose: 18.0 mg/kg/injection, schedule: Q01DX009 (ip), vehicle: saline with Tween-80", "value": "97 % of control"}]}
{"smiles": "CCOC(=O)C(C)Sc1nn(C2OC(COC(=O)c3ccccc3)C(OC(=O)c3ccccc3)C2OC(=O)c2ccccc2)c(=O)[nH]c1=O", "note": "(stereo unspecified)", "values": [{"measurement": "T/C", "setting": "dose: 12.5 mg/kg/injection, schedule: Q01DX005 (ip), vehicle: distilled water + Tween-80", "value": "97 % of control"}, {"measurement": "T/C", "setting": "dose: 25.0 mg/kg/injection, schedule: Q01DX005 (ip), vehicle: distilled water + Tween-80", "value": "97 % of control"}, {"measurement": "T/C", "setting": "dose: 50.0 mg/kg/injection, schedule: Q01DX005 (ip), vehicle: distilled water + Tween-80", "value": "95 % of control"}, {"measurement": "T/C", "setting": "dose: 100.0 mg/kg/injection, schedule: Q01DX005 (ip), vehicle: distilled water + Tween-80", "value": "95 % of control"}, {"measurement": "T/C", "setting": "dose: 200.0 mg/kg/injection, schedule: Q01DX005 (ip), vehicle: distilled water + Tween-80", "value": "89 % of control"}]}
{"smiles": "CCC[CH2][Pb]([Cl])([CH2]CCC)[CH2]CCC", "values": [{"measurement": "T/C", "setting": "dose: 1.5 mg/kg/injection, schedule: Q01DX009 (ip), vehicle: saline with Tween-80", "value": "96 % of control"}, {"measurement": "T/C", "setting": "dose: 3.0 mg/kg/injection, schedule: Q01DX009 (ip), vehicle: saline with Tween-80", "value": "96 % of control"}, {"measurement": "T/C", "setting": "dose: 6.0 mg/kg/injection, schedule: Q01DX009 (ip), vehicle: saline with Tween-80", "value": "93 % of control"}, {"measurement": "T/C", "setting": "dose: 6.25 mg/kg/injection, schedule: Q04DX003 (ip), vehicle: saline with Tween-80", "value": "93 % of control"}, {"measurement": "T/C", "setting": "dose: 12.5 mg/kg/injection, schedule: Q04DX003 (ip), vehicle: saline with Tween-80", "value": "87 % of control"}, {"measurement": "T/C", "setting": "dose: 25.0 mg/kg/injection, schedule: Q04DX003 (ip), vehicle: saline with Tween-80", "value": "93 % of control"}]}
